Test results as given in patent US20230391772A1, “METHODS AND COMPOSITIONS FOR TARGETED PROTEIN DEGRADATION” (Ranok Therapeutics (Hangzhou) Co. Ltd., priority 2020, published 2023).

Experiments:
HSP90a protein = target: T1, HSP90a protein (Homo sapiens, UniProt P07900); test: HSP90α-binding fluorescent polarization (FP) assay, BODIPY-labeled RNK04010 probe; settings: FP competition with RNK04010 (BODIPY-labeled), 5 nM, 300 min at 25° C.
T1 construct: purchased BPS Bioscience 50298
Procedure: HSP90α-Binding Fluorescent Polarization (FP) Assay
Binding of test compounds to HSP90a protein was measured by fluorescent polarization (FP) using the HSP90a (N-terminal) Assay Kit (BPS Bioscience, #50298), following the manufacturer's instructions, except as noted. Fluorescently labeled HSP90-binding compounds, either the provided FITC-geldanamycin (5 nM final concentration) or RNK04010, a triazolone-based HSP90 binding small molecule labeled with BODIPY through a piperizine-phenyl linker (5 nM final concentration) were employed. A 2.5-fold serial dilution of each test compound ranging from 20 μM to 5.2 nM was assayed for binding to HSP90a. After the final step of adding HSP90a protein to each assay well, plates were mixed by brief shaking, incubated at 25° C. for 120 min for FITC-geldanamycin or 300 min for RNK04010, and fluorescence was measured using a PerkinElmer EnVision Plate Reader.

[1] = test system: MIA PaCa-2 human pancreatic carcinoma; test: MIA PaCa-2 CCK-8 proliferation assay; format: cell-based; settings: Homo sapiens, MIA PaCa-2, 72 h, MIA PaCa-2 cells
Procedure: The following cancer cell lines were employed: BT-474 human breast carcinoma (ATCC, #HTB-20); MIA PaCa-2 human pancreatic carcinoma [2 copies KRAS(G12C)](ATCC, #CRL-1420); NCI-H23 human non-small cell lung cancer [1 copy KRAS(G12C)](ATCC, #CRL-5800); NCI-H358 human non-small cell lung cancer [1 copy KRAS(G12C)](ATCC, #CRL-5807); LU65A human lung carcinoma (Pharmaron, Beijing, China). Cell lines were cultured essentially according to ATCC and Pharmaron recommendations.
Cancer Cell Line Proliferation (CCK-8) Assays
3-fold serial dilutions of each test compound were prepared ranging from 20 μM to 1.02 nM.
% Inhibition=100−(D−B)/(S−B)*100%. • S: Absorbance of cells treated with DMSO • D: Absorbance of compound-treated cells • B: Absorbance of medium with DMSO without cells

KRAS(G12C) = KRAS(G12C) (Homo sapiens, UniProt P01116, G12C); test: KRAS(G12C)/SOS1 homogeneous time-resolved fluorescence (HTRF) assay; design: purchased Cisbio 63ADK000CB16PEG; settings: absence of GTP, 4° C. for 3 hr, read-out: KRAS (G12C) binding
Procedure: KRAS(G12C)/SOS1 Homogeneous Time-Resolved Fluorescence (HTRF) Assay
Binding of test compounds to KRAS(G12C) protein, which in turn blocks KRAS(G12C) interaction with the SOS1 protein, was measured in the absences of GTP by homogeneous time-resolved fluorescence (HTRF) using the KRAS-G12C/SOS1 Binding Assay Kit (Cisbio, #63ADK000CB16PEG), following the manufacturer's instructions, except as noted. 3-fold serial dilutions of each test compound were prepared ranging from […] to 1.02 nM. The test compound was mixed and incubated with reaction components, incubated in a sealed plate at 4° C. for 3 hr and fluorescence was measured using a PerkinElmer Envision plate reader.

Chain of KRAS(G12C) (P01116 1-188 isoform P01116-2 G12C): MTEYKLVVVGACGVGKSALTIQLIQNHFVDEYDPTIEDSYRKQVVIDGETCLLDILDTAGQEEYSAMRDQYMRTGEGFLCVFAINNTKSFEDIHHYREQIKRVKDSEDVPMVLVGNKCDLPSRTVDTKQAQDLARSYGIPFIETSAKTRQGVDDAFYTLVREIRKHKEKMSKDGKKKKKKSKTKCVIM

IC50 (HSP90a protein) [nM] | EC50 [1] [nM] | IC50 (KRAS(G12C)) [nM] | Structure (SMILES)
< 100 | > 1000 | > 1000 | C=CC(=O)N1CCN(c2nc(OC[C@@H]3CN(C(=O)C4CCN(Cc5ccc(-n6c(C(N)=O)nnc6-c6cc(C(C)C)c(O)cc6O)cc5)CC4)CCN3C)nc3c2CCN(c2cccc4cccc(Cl)c24)C3)C[C@@H]1CC#N [Compound 197, 4-(4-((4-((S)-3-(((4-((S)-4-acryloyl-3-(cyanomethyl)piperazin-1-yl)-7-(8-chloronaphthalen-1-yl)-5,6,7,8-tetrahydropyrido[3,4-d]pyrimidin-2-yl)oxy)methyl)-4-methylpiperazine-1-carbonyl)piperidin-1-yl)methyl)phenyl)-5-(2,4-dihydroxy-5-isopropylphenyl)-4H-1,2,4-triazole-3-carboxamide, trifluoroacetic acid]
< 100 | 100 to 1000 | < 100 | C=CC(=O)N1CCN(c2nc(OC[C@@H]3C[C@H](N4CCC(C(=O)N5CCN(Cc6ccc(-n7c(C(=O)NCCN8CCN(S(C)(=O)=O)CC8)nnc7-c7cc(C(C)C)c(O)cc7O)cc6)CC5)CC4)CN3C)nc3c2CCN(c2cccc4cccc(Cl)c24)C3)C[C@@H]1CC#N [Compound 327, 4-{4-[(4-{1-[(3S,5S)-5-({[7-(8-chloronaphthalen-1-yl)-4-[(3S)-3-(cyanomethyl)-4-(prop-2-enoyl)piperazin-1-yl]-5H,6H,8H-pyrido[3,4-d]pyrimidin-2-yl]oxy}methyl)-1-methylpyrrolidin-3-yl]piperidine-4-carbonyl}piperazin-1-yl)methyl]phenyl}-5-(2,4-dihydroxy-5-isopropylphenyl)-N-[2-(4-methanesulfonylpiperazin-1-yl)ethyl]-1,2,4-triazole-3-carboxamide]
< 100 | > 1000 | > 1000 | C=CC(=O)N1CCN(c2nc(OCCN3CCN(C(=O)c4ccc(-n5c(O)nnc5-c5cc(C(C)C)c(O)cc5O)cc4)CC3)nc3c2CCN(c2cccc4cccc(Cl)c24)C3)C[C@@H]1CC#N [Compound 195, (S)-2-(1-acryloyl-4-(7-(8-chloronaphthalen-1-yl)-2-(2-(4-(4-(3-(2,4-dihydroxy-5-isopropylphenyl)-5-hydroxy-4H-1,2,4-triazol-4-yl)benzoyl)piperazin-1-yl)ethoxy)-5,6,7,8-tetrahydropyrido[3,4-d]pyrimidin-4-yl)piperazin-2-yl)acetonitrile, trifluoroacetic acid]
< 100 | < 100 | 100 to 1000 | C=C(F)C(=O)N1CCN(c2nc(OCCN3CCN(C(=O)C4CCN(Cc5ccc(-n6c(C(=O)NCC(F)(F)F)nnc6-c6cc(C(C)C)c(O)cc6O)cc5)CC4)CC3)nc3c2CCN(c2cccc4cccc(Cl)c24)C3)C[C@@H]1CC#N [Compound 207, (S)-4-(4-((4-(4-(2-((7-(8-chloronaphthalen-1-yl)-4-(3-(cyanomethyl)-4-(2-fluoroacryloyl)piperazin-1-yl)-5,6,7,8-tetrahydropyrido[3,4-d]pyrimidin-2-yl)oxy)ethyl)piperazine-1-carbonyl)piperidin-1-yl)methyl)phenyl)-5-(2,4-dihydroxy-5-isopropylphenyl)-N-(2,2,2-trifluoroethyl)-4H-1,2,4-triazole-3-carboxamide]
< 100 | < 100 | < 100 | C=CC(=O)N1CCN(c2nc(OC[C@@H]3C[C@@H](NC(=O)C4CCN(Cc5ccc(-n6c(C(=O)NCC(F)(F)F)nnc6-c6cc(C(C)C)c(O)cc6O)cc5)CC4)CN3C)nc3c2CCN(c2cccc4cccc(Cl)c24)C3)C[C@@H]1CC#N [Compound 200, N-((3R,5S)-5-(((4-((S)-4-acryloyl-3-(cyanomethyl)piperazin-1-yl)-7-(8-chloronaphthalen-1-yl)-5,6,7,8-tetrahydropyrido[3,4-d]pyrimidin-2-yl)oxy)methyl)-1-methylpyrrolidin-3-yl)-1-(4-(3-(2,4-dihydroxy-5-isopropylphenyl)-5-((2,2,2-trifluoroethyl)carbamoyl)-4H-1,2,4-triazol-4-yl)benzyl)piperidine-4-carboxamide]
< 100 | 100 to 1000 | < 100 | C=CC(=O)N1CCN(c2nc(OC[C@H]3CC[C@@H](C(=O)N4CCN(C(=O)C5CCN(Cc6ccc(-n7c(O)nnc7-c7cc(C(C)C)c(O)cc7O)cc6)CC5)CC4)N3C)nc3c2CCN(c2cccc4cccc(Cl)c24)C3)C[C@@H]1CC#N [Compound 342, 2-[(2S)-4-[7-(8-chloronaphthalen-1-yl)-2-{[(2R,5S)-5-{4-[1-({4-[3-(2,4-dihydroxy-5-isopropylphenyl)-5-hydroxy-1,2,4-triazol-4-yl]phenyl}methyl)piperidine-4-carbonyl]piperazine-1-carbonyl}-1-methylpyrrolidin-2-yl]methoxy}-5H,6H,8H-pyri-do[3,4-d]pyrimidin-4-yl]-1-(prop-2-enoyl)piperazin-2-yl]acetonitrile]
< 100 | < 100 | < 100 | C=CC(=O)N1CCN(c2nc(OC[C@@H]3C[C@H](N4CCC5(CCN(C(=O)C6CCN(Cc7ccc(-n8c(C(=O)NCC(F)(F)F)nnc8-c8cc(C(C)C)c(O)cc8O)cc7)CC6)CC5)CC4)CN3C)nc3c2CCN(c2cccc4cccc(Cl)c24)C3)C[C@@H]1CC#N [Compound 311, 4-{4-[(4-{9-[(3S,5S)-5-({[7-(8-chloronaphthalen-1-yl)-4-[(3S)-3-(cyanomethyl)-4-(prop-2-enoyl)piperazin-1-yl]-5H,6H,8H-pyrido[3,4-d]pyrimidin-2-yl]oxy}methyl)-1-methylpyrrolidin-3-yl]-3,9-diazaspiro[5.5]undecane-3-carbonyl}piperidin-1-yl)methyl]phenyl}-5-(2,4-dihydroxy-5-isopropylphenyl)-N-(2,2,2-trifluoroethyl)-1,2,4-triazole-3-carboxamide]
< 100 | < 100 | < 100 | C=CC(=O)N1CCN(c2nc(OC[C@@H]3C[C@H](N4CCC(C(=O)N5CCN(Cc6ccc(-n7c(C(=O)NCC(F)(F)C(F)(F)F)nnc7-c7cc(C(C)C)c(O)cc7O)cc6)CC5)CC4)CN3C)nc3c2CCN(c2cccc4cccc(Cl)c24)C3)C[C@@H]1CC#N [Compound 323]
< 100 | 100 to 1000 | 100 to 1000 | C=CC(=O)N1CCN(c2nc(OCCN3CCC(C(=O)N4CCC(Cc5ccc(-n6c(C(=O)NCC(F)(F)F)nnc6-c6cc(C(C)C)c(O)cc6O)cc5)CC4)CC3)nc3c2CCN(c2cccc4cccc(Cl)c24)C3)C[C@@H]1CC#N [Compound 212, (S)-4-(4-((1-(1-(2-((4-(4-acryloyl-3-(cyanomethyl)piperazin-1-yl)-7-(8-chloronaphthalen-1-yl)-5,6,7,8-tetrahydropyrido[3,4-d]pyrimidin-2-yl)oxy)ethyl)piperidine-4-carbonyl)piperidin-4-yl)methyl)phenyl)-5-(2,4-dihydroxy-5-isopropylphenyl)-N-(2,2,2-trifluoroethyl)-4H-1,2,4-triazole-3-carboxamide]
 | > 1000 | 100 to 1000 | C=CC(=O)N1CCN(c2nc(OCCN3CCC(C(=O)N4CCC(CN5CCC(Cc6ccc(-n7c(O)nnc7-c7cc(O)c(C(C)C)cc7O)cc6)CC5)CC4)CC3)nc3c2CCN(c2cccc4cccc(Cl)c24)C3)C[C@@H]1CC#N [Compound 238, (S)-2-(1-acryloyl-4-(7-(8-chloronaphthalen-1-yl)-2-(2-(4-(4-((4-(4-(3-(2,5-dihydroxy-4-isopropylphenyl)-5-hydroxy-4H-1,2,4-triazol-4-yl)benzyl)piperidin-1-yl)methyl)piperidine-1-carbonyl)piperidin-1-yl)ethoxy)-5,6,7,8-tetrahydropyrido[3,4-d]pyrimidin-4-yl)piperazin-2-yl)acetonitrile]
